Assay results: US7790727B2, “Benzenesulfonanilide compounds suitable for treating disorders that respond to modulation of the serotonin 5-HT6 receptor” (Abbott GmbH & Co. KG, priority 2007, dated 2010)
Counter-ions that a name gives are not always drawn.

Target: T1, h-5-HT6 receptor (Homo sapiens, UniProt P50406)
T1 construct: expressed in transfected cells
Experiment: 5-HT6 receptor binding assay (displacement of [3H]-LSD)
Details: membranes of HEK293 cells expressing h-5-HT6 receptor, 1 nM [3H]-LSD; read-out: Ki(5HT6)
Procedure: Displacement of radioligands binding to the following cloned human receptors
(§1) 1. Preparation of Membranes by Ultrasonic Treatment and Differential Centrifugation
Cells from stable clonal cell lines expressing the corresponding receptor (5-HT6, α1-adrenergic, dopamine D2 or histamine H1 receptors) were washed with PBS (w/o Ca^++, Mg^++) and harvested in PBS with 0.02% EDTA. The cells were collected by centrifugation at 500 g for 10 min. at 4° C., washed with PBS and centrifuged (500 g, 10 min. 4° C.). The pellets were stored at −80° C. until use. F or membrane preparation, the thawed cell pellet was resuspended in ice-cold sucrose buffer (0.25 M sucrose, 10 mM Hepes (pH 7.4), 1 mM Phenylmethylsulfonyl fluoride (PMSF) in DMSO, 5 μg/ml Pepstatin-A, 3 mM EDTA, 0.025% Bacitracin) and homogenized with a Branson Sonifier W-250 (Settings: Timer 4; Output Control 3; Duty Cycle constant; 2 to 3 cycles). Cell disruption was checked with the aid of a microscope. Remaining unbroken cells were pelleted at 1.000 g for 10 min. at 4° C. The sucrose buffer supernatant was then centrifuged at 60.000 g for 1 h at 4° C. (Beckman Ultrazentrifuge XL 80). The pellet was resuspended in 30 ml ice-cold Tris buffer (20 mM TRIS (pH 7.4), 5 μg/ml Pepstatin A, 0.1 mM PMSF, 3 mM EDTA) by pipetting through a 10 ml serological pipet and centrifuged for 1 h at 4° C. at 60.000 g. A final resuspension was performed in a small volume of ice-cold Tris buffer (see above) by pressing through a serological pipet followed by ultrasonic treatment with a Branson Sonifier W-250 (Settings: Timer 1; Output Control 3; Duty Cycle constant; 1 cycle). Protein concentration was determined (BCA-Kit; Pierce) and aliquots stored at −80° C. or in liquid nitrogen for long-term storage.
(§2) 2. Receptor Binding Experiments
All receptor binding experiments were carried out in the corresponding assay buffer in a total volume of 200 μl in the presence of various concentrations of test compound (10^−5 M to 10^−9 M, tenfold serial dilution, duplicate determinations). The assays were terminated by filtration on polyethylenimine (PEI 0.1% or 0.3%) presoaked Packard Unifilter Plates (GF/C or GF/B) with a Tomtec Machill U 96 well-plate harvester. After the plates had been dried for 2 h at 55° C. in a drying chamber scin tillation cocktail (BetaPlate Scint; PerkinElmer) was added. Radioactivity was measured in a Microbeta Trilux two hours after the addition of the scintillation mixture. Data derived from liquid scintillation counting were analysed by iterative non-linear regression analysis with the use of the Statistical Analysis System (SAS): a program similar to “LIGAND” as described by Munson and Rodbard (Analytical Biochemistry 107, 220-239 (1980).
a) 5-HT6 Receptor Binding Assay
HEK293 cells stably expressing the h-5-HT6 receptor (NCBI Reference Sequence XM 001435) were cultured in RPMI1640 medium supplemented with 25 mM HEPES, 10% fetal calf serum and 1-2 mM glutamine. The membrane preparation was performed as described in section 1. […] Non-specific binding was defined with 1 μM methiothepin. The binding reaction was carried out for 3.5 h at room temperature. During the incubation, the plates were shaken on a plate shaker at 100 rpm and terminated by filtration on Packard Unifilter GF/C (0.1% PEI) plates, followed by 2 wash cycles with ice-cold 50 mM Tris-HCl, 5 mM CaCl2.
Data derived from liquid scintillation counting were analyzed by iterative non-linear regression analysis with the use of the Statistical Analysis System (SAS): a program similar to “LIGAND” as described by Munson and Rodbard (Anal. Biochem. 1980, 107, 220-239). Fitting was performed according to formulae described by Feldman (Anal. Biochem. 1972, 48, 317-338). IC50, nH and Ki values were expressed as geometrical mean.

T1 sequence (P50406 whole entry): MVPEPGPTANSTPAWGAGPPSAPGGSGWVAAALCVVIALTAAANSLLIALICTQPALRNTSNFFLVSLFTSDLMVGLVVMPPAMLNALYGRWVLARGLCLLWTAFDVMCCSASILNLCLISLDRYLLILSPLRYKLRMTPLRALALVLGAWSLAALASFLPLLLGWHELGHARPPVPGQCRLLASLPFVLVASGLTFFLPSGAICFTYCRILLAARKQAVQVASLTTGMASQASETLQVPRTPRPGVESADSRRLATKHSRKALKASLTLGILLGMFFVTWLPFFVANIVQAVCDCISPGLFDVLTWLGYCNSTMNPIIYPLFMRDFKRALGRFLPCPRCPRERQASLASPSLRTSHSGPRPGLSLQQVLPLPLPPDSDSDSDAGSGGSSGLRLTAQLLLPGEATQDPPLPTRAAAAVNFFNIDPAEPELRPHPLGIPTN

Ki [nM] | Molecule
< 20 | O=S(=O)(Nc1ccc(OC(F)(F)F)c(N2CCNCC2)c1)c1cccc(OC(F)F)c1 [Example 6, 3-Difluoromethoxy-N-(3-piperazin-1-yl-4-trifluoromethoxy-phenyl)-benzenesulfonamide]
< 50 | CCCN(c1ccc(OC)c(N2CCNCC2)c1)S(=O)(=O)c1cccc(OC(F)F)c1 [Example 18, 3-Difluoromethoxy-N-(4-methoxy-3-piperazin-1-yl-phenyl)-N-propyl-benzene-sulfonamide Hydrochloride]
< 10 | O=S(=O)(Nc1cccc(N2CCNCC2)c1)c1cccc2c1OC(F)(F)O2 [Example 29, 2,2-Difluoro-benzo[1,3]dioxole-4-sulfonic acid (3-piperazin-1-yl-phenyl)-amide Hydrochloride]
< 10 | COc1ccc(NS(=O)(=O)c2ccccc2OC(F)F)cc1N1CCNCC1 [Example 14, 2-Difluoromethoxy-N-(4-methoxy-3-piperazin-1-yl-phenyl)-benzenesulfonamide Trifluoroacetate]
< 10 | COc1ccc(NS(=O)(=O)c2cccc3c2OC(F)(F)O3)cc1N1CCNCC1 [Example 4, 2,2-Difluoro-benzo[1,3]dioxole-4-sulfonic Acid (4-methoxy-3-piperazin-1-yl-phenyl)-amide Hydrochloride]
< 50 | COc1ccc(NS(=O)(=O)c2ccc(OC(F)F)cc2)cc1N1CCNCC1 [Example 15, 4-Difluoromethoxy-N-(4-methoxy-3-piperazin-1-yl-phenyl)-benzenesulfonamide Hydrochloride]
< 10 | COc1c(F)cc(NS(=O)(=O)c2cccc3c2OC(F)(F)O3)cc1N1CCNCC1 [Example 10, 2,2-Difluoro-benzo[1,3]dioxole-4-sulfonic acid (3-fluoro-4-methoxy-5-piperazin-1-yl-phenyl)-amide Hydrochloride]
< 10 | COc1ccc(N(C)S(=O)(=O)c2cccc(OC(F)F)c2)cc1N1CCN(C)CC1 [Example 24, 3-Difluoromethoxy-N-[4-methoxy-3-(4-methyl-piperazin-1-yl)-phenyl]-N-methyl-benzenesulfonamide Hydrochloride]
< 10 | COc1ccc(S(=O)(=O)Nc2ccc(OC)c(N3CCNCC3)c2)cc1OC(F)F [Example 13, 3-Difluoromethoxy-4-methoxy-N-(4-methoxy-3-piperazin-1-yl-phenyl)-benzenesulfonamide Hydrochloride]
< 10 | COc1ccc(NS(=O)(=O)c2cccc(OC(F)F)c2)cc1N1CCN(C)CC1 [Example 25, 3-Difluoromethoxy-N-[4-methoxy-3-(4-methyl-piperazin-1-yl)-phenyl]-benzenesulfonamide]
< 50 | CCN(c1ccc(OC)c(N2CCNCC2)c1)S(=O)(=O)c1cccc2c1OC(F)(F)O2 [Example 22, 2,2-Difluoro-benzo[1,3]dioxole-4-sulfonic acid ethyl-(4-methoxy-3-piperazin-1-yl-phenyl)-amide Hydrochloride]
< 50 | O=S(=O)(Nc1ccc(OCCF)c(N2CCNCC2)c1)c1cccc2c1OC(F)(F)O2 [Example 12, 2,2-Difluoro-benzo[1,3]dioxole-4-sulfonic acid (4-(2-fluoroethoxy)-5-piperazin-1-yl-phenyl)-amide Hydrochloride]
< 10 | COc1ccc(NS(=O)(=O)c2cc(OC(F)F)ccc2OC)cc1N1CCNCC1 [Example 8, 5-Difluoromethoxy-2-methoxy-N-(4-methoxy-3-piperazin-1-yl-phenyl)-benzene-sulfonamide Hydrochloride]
< 20 | COc1ccc(NS(=O)(=O)c2ccc(OC(F)F)cc2)cc1N1CCN(C)CC1 [Example 3, 4-Difluoromethoxy-N-[4-methoxy-3-(4-methyl-piperazin-1-yl)-phenyl]-benzenesulfonamide]
< 10 | O=S(=O)(Nc1ccc(OCCF)c(N2CCNCC2)c1)c1cccc(OC(F)F)c1 [Example 11, 3-Difluoromethoxy-N-[4-(2-fluoroethoxy)-3-piperazin-1-yl-phenyl]-benzenesulfonamide Hydrochloride]

Target: T2, dopamine D2 receptor (Homo sapiens, UniProt P14416)
T2 construct: expressed in transfected cells
T2 sequence (P14416 whole entry): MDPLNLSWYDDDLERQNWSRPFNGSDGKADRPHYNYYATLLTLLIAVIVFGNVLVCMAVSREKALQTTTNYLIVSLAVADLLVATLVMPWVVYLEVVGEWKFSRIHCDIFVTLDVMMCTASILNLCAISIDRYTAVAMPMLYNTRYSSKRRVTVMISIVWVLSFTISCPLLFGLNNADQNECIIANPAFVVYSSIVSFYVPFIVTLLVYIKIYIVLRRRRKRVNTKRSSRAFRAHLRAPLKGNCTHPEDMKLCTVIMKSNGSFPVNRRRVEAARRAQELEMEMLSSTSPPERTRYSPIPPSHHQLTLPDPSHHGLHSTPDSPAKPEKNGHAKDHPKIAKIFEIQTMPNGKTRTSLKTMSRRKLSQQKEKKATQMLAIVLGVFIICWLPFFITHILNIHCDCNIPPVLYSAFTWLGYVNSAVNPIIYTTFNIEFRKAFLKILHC
Experiment: Dopamine D2 receptor binding assay (displacement of [125I]-iodospiperone)
Details: dopamine D2 receptor membranes, HEK293; read-out: KD of radioligand (saturation binding experiments)
Procedure: as §1
The pellets were stored at −80° C. until use. […] (Beckman Ultrazentrifuge XL 80).
as §2
a) Dopamine D2 Receptor Binding Assay
Non-specific binding was defined with 1 μM haloperidol.

Kd [nM] | Molecule
0.22 | iodospiperone [[^125I]-iodospiperone]
